Data: US7504489B2, “Inhibitors of ADP-ribosyl transferases, cyclases, and hydrolases, and uses thereof” (Albert Einstein College of Medicine of Yeshiva University, priority 2001, dated 2009)
Where “and” joins values, the source holds several entries; their conditions need not be identical. Identical values can stand only once. Values belong to the compound of their own block, whether it stands above or below them.

Experiments:
[1] = target: T1, CD38 (Homo sapiens, UniProt P28907); assay: CD38 activity and inhibition measurements (time-dependent inactivation, NGD+ to cGDPR, absorbance at 295 nm); assay type: biochemical; conditions: for residual enzymatic activity, % of the control: 10 min after treatment of enzyme (500 nM) with excess inhibitor (10 μM), 10 min, 10 µM
T1 sequence (P28907 45-300): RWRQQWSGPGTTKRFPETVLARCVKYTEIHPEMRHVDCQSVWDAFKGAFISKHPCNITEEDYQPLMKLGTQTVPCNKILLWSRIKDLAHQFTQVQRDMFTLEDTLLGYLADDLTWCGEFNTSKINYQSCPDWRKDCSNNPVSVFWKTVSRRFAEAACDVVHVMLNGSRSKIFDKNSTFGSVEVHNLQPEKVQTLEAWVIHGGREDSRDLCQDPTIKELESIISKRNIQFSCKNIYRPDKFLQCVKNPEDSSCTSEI
Method: […] Aliquots of the reaction were assayed by placing 5 μl of the reaction mixture into 1 ml of 50 mM HEPES (pH 7.5) containing 100 μM NGD^+, at 30, 60, 90, 120, 180, or 300 sec. The conversion of NGD^+ to cGDPR was monitored by determining absorbance at 295 nm. A reaction mixture lacking inhibitor was used as a control. Activity was determined as a function of time, and fitted to the equation A(t)=[…]^-kt, where A0 is activity at time zero (control), t is time in seconds, and k is the observed pseudo-first-order rate constant. Human CD38 (200 nM) was incubated with β-1'-pyridyl-2'-deoxyribose (25 mM) in a volume of 100 μl of 50 mM Tricine (pH 7.5). Aliquots of the reaction (5 μl) were assayed by placing into 1 ml of 50 mM HEPES (pH 7.5) containing 100 μM NGD^+ at 750, 1500, 2250, 3000, 4000, 8000, and 14400 s. The conversion of NGD^+ to cGDPR was monitored by absorbance at 295 nm. A reaction mixture lacking inhibitor was used as a control. Activity was determined as a function of time, and fitted to the equation A(t)=C+[…]^-kt, where A0 is activity at time zero (control), t is time in s, k is the observed pseudo-first-order rate constant, and C represents uninhibited activity at equilibrium.

[2] = target: T1, CD38; assay: Radiochemical measurement of reaction rates (covalent labelling of CD38 by [2′-3H] inhibitor, gel filtration); assay type: binding; conditions: for kon (radioactivity, radiolabeled inhibitor bound versus time): [2′-3H]βNdR 9 μM, CD38 1.2 μM, gel filtration
Method: [2′-^3H]β-1′-nicotinamide-2′-deoxyribose ([2′-^3H]βNdR) was used to measure the covalent interaction of inhibitor with CD38 as follows: 9 μM inhibitor with specific activity of 1233 cpm/nmol was incubated with 1.2 μM CD38 in a volume of 1 ml of 50 mM potassium phosphate (pH 7.5). The reactions were started by enzyme addition, and quenched by freezing in a dry ice/acetone bath after 30, 60, 90, 120, 250, 500, and 1000 sec. Samples were placed on 1 ml gel filtration columns (0° C.) that were used to separate protein from free inhibitor. Columns were cooled on ice, and eluted with cold (0° C.) 10 mM potassium phosphate (pH 7.5) as eluant. Fractions (1 ml) were combined with 9 ml of scintillation fluid, and counted for radioactivity. A sample lacking enzyme, but having the same incubations, was performed as a blank control. A sample using the α-[2′-^3H]nicotinamide-2′-deoxyribose of equal concentration and specific activity, and having the same incubations, was performed as a second control. The observed cpm in the protein peak (fractions 3+4) was fitted to the equation A(t)=A0(1−exp(−kt))+B, where A(t) is the cpm in protein at time t, A0 is the cpm at reaction completion, k is the observed pseudo-first-order rate constant, B is the activity of the blank, and t is the time in seconds.
The covalent interaction of [2′-^3H]β-1′-pyridyl-2′-deoxyribose with CD38 was measured as follows: 25 mM inhibitor with specific activity of 1233 cpm/nmol was incubated with 25.2 μM CD38 in a volume of 50 μl of 50 mM Tricine (pH 7.5). The reactions were started by enzyme addition, and quenched by freezing in a dry ice/acetone bath after 2 h, 7200 s. Samples were placed on (0° C.) 1-ml gel filtration columns (P-10) that were used to separate protein from free inhibitor. Columns were cooled on ice, and eluted with cold (0° C.) 10 mM potassium phosphate (pH 7.5) as eluant. Fractions (1 ml) were combined with 9 ml of scintillation fluid, and counted for radioactivity. A sample lacking enzyme, but undergoing the same incubations, was performed as a blank control. A sample using the α-[2′-^3H]nicotinamide-2′-deoxyribose of equal concentration and specific activity, and the same incubations, was used as a second control. The observed cpm in the protein peak (fractions 3+4) were fitted to the equation A(t)=A0(1−exp(−kt))+B, where A(t) is the cpm in protein at time t, A0 is the cpm at reaction completion, k is the observed pseudo-first-order rate constant, B is the activity of the blank, and t is the time in s.

[3] = target: T1, CD38; assay: Determination of Ki and kchem by competitive method (NGD+ substrate, absorbance at 295 nm); assay type: biochemical
Method: CD38 was used to start reactions containing 1-ml solutions of 50 mM potassium phosphate, 100 μM NGD, and 50, 25, 12.5, 6.25, and 0 μM βNdR. Reactions were initiated with 2 μl of 7 μM CD38, and reaction progress was monitored by measurement of absorbance at 295 nm. The initial slopes were used to determine the Ki value. The time course of absorbance for each sample was fitted to the equation A(t)=vt+(b−v)(1−exp(−kt))/k+A0, where k is the observed rate constant, b is the initial rate, v is the final rate, and A0 is the initial absorbance. The rate constant kchem (FIG. 3) was determined as reported (19).
This mechanism of inhibition was tested by treatment of CD38 with different concentrations of inhibitor in the presence of 50 Km of substrate to establish values for Ki and kchem. In the presence of 100 μM NGD^+, reaction mixtures containing 0 to 50 μM βNdR were initiated by addition of enzyme (FIG. 8).

[4] = target: T1, CD38; assay: as above; assay type: biochemical; remark: listed apart in the source
[5] = target: T2, CD38 (Homo sapiens, UniProt P28907); conditions: 37° C.; cited from earlier work
T2 sequence (P28907 1-300): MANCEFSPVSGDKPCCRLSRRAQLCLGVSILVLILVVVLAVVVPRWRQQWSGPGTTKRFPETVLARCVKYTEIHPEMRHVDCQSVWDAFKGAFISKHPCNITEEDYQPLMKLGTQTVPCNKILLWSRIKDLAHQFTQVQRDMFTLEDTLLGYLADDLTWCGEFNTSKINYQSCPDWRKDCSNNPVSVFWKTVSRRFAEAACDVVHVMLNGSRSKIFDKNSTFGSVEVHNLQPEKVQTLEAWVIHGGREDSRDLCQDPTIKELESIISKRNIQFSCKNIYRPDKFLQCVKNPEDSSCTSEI

[6] = target: T1, CD38; assay: Off-rate measurement (recovery of CD38 catalytic activity after inactivation); assay type: biochemical
Method: Recovery of CD38 catalytic activity after inactivation with β-1′-nicotinamide-2′-deoxyribose was measured in reaction mixtures containing 500 nM CD38, 50 mM inhibitor, and 15 μM deoxyriboside. After timed intervals, 5 μl of the reaction mixture were added to a 1-ml reaction of 50 mM HEPES (pH 7.5) containing 300 μM NGD^+. A control was also prepared without the inhibitor. Production of cGDPR was determined by monitoring absorbance at 295 nm. The absorbance was fitted to the equation A(t)=vt+(b−v)(1−exp(−kofft))/koff+A0 (19), where koff is the observed rate constant, b is the initial rate, v is the final rate, and A0 is the initial absorbance. Recovery of CD38 catalytic activity after inhibition by βNdR was measured by adding inactivated CD38 to solutions of NGD^+, and monitoring absorbance change at 295 nm for periods of 3-4 h. The recovery process was slow: full catalytic activity was not restored over this time period. However, the measured rate constant for recovery could be measured by regressive fit of the data to the activity recovery equation, A(t)=vt+(b−v)(1−exp(−kofft))/koff+A0, where koff is the observed rate constant, b is the initial rate, v is the final rate, and A0 is the initial absorbance. […] The proposed mechanism of recovery operates through the hydrolytic path (FIG. 4).

[7] = listed as β-1′-nicotinamide-2′-deoxyribose

effect of extended incubation on CD38 ([1]; 200 μM inhibitor): inhibited the enzyme
minimum value for kchem ([1]; 200 μM inhibitor, extended incubations, activity versus time): ≥ 0.00022 s⁻¹
covalent attachment of the sugar moiety to the enzyme ([2]; [2′-3H] labelled inhibitor, gel-filtration): confirmed covalent attachment
Ki ([3]; 5′-phospho derivative, similar studies, read-out: Ki): > 200 µM
Compound: 5′-phospho-1′-β-pyridyl-2′-deoxyribose [5′-phospho-1′-pyridyl-deoxyribose]

extent of inhibition achieved ([1]; 25 mM inhibitor, limited by long onset times and inhibitor decomposition): 60-80%
rate of covalent inactivation, equivalent to kchem ([1]; saturating concentration (25 mM), absence of NGD+): 0.00017 s⁻¹
Ki ([3]; calculated value, read-out: Kieff (koffKi/kchem)): 323 µM
Kieff relative to Kieff for βNdR ([3]; times larger): 10^5 times
Ki ([4]; 50 μM to 50 mM inhibitor, 5 μM (3 Km) NGD+, read-out: Ki for CD38 inhibition): 11000 µM
Compound: OC[C@H]1O[C@@H]([n+]2ccccc2)C[C@@H]1O [β-pyridyl-deoxyribose, β-1′-pyridyl-2′-deoxyribose]

residual enzymatic activity, % of the control [1]: less than 5%
residual enzymatic activity, % of the control [1, 7]: < 5%
Ki ([1]; kon from activity decay, read-out: Kieff = koff/kon (Activity, koff)): 0.0051 µM
Ki ([1]; read-out: Kieff = koff/kon (kon from activity decay)): 0.005 µM
kon (radioactivity, radiolabeled inhibitor bound versus time) [2]: 1540 M⁻¹ s⁻¹
kon (radioactivity, radiolabeled inhibitor bound versus time) [2, 7]: 1500 M⁻¹ s⁻¹
Ki ([2]; kon from radioactivity, read-out: Kieff = koff/kon (Radioactivity, koff)): 0.0033 µM
Ki ([2]; read-out: Kieff = koff/kon (kon from radioactivity)): 0.0032 µM
koff, rate constant for recovery (activity recovery, hydrolysis) ([6]; inactivated CD38 added to NGD+, 3-4 h, no nicotinamide): 5e-06 s⁻¹
rate of CD38-deoxyribose hydrolysis relative to CD38 ribose 5-phosphate ([6]; ratio of hydrolysis rates of covalent intermediates): 10^−8
kchem, rate constant for chemical reaction (competitive onset) ([3]; 100 μM NGD+, 0 to 50 μM inhibitor, listed as β-1′-nicotinamide-2′-deoxyribose): 0.0126 s⁻¹
Ki ([3]; 100 μM NGD+, 0 to 50 μM inhibitor, listed as β-1′-nicotinamide-2′-deoxyribose, read-out: Ki (competitive, initial slopes)): 2.5 µM
Ki ([3]; 100 μM NGD+, 0 to 50 μM inhibitor, read-out: Ki (competitive, initial slopes)): 1 µM
Ki ([3]; average of the three Kieff values, read-out: Kieff (Average of values)): 0.0029 µM
Ki ([3]; listed as β-D-1′-nicotinamide-2′-deoxyribofuranoside, read-out: Kieff, effective inhibition constant (average)): 0.0029 µM
Ki ([3]; read-out: Kieff = Kikoff/kchem): 0.0004 µM
Ki ([3]; read-out: Kieff, effective inhibition constant (average)): 0.0029 µM and 0.002 µM
Compound: NC(=O)c1ccc[n+]([C@H]2C[C@H](O)[C@@H](CO)O2)c1 [βNdR, β-1′-nicotinamide-2′-deoxyribose]

Further lines, the compound ahead of its results:

Compound: NC(=O)c1ccc[n+]([C@@H]2O[C@H](COP(=O)([O-])OP(=O)(O)OC[C@H]3O[C@@H](n4cnc5c(=O)[nH]c(N)nc54)[C@H](O)[C@@H]3O)[C@@H](O)[C@H]2O)c1 [NGD^+, Nicotinamide guanine dinucleotide, reference compound]
Km ([4]; CD38 substrate): 2 µM

Compound: NC(=O)c1ccc[n+]([C@@H]2O[C@H](COP(=O)(O)O)[C@@H](O)[C@H]2O)c1 [NMN^+]
kcat for hydrolysis (hydrolysis of the covalent intermediate) [5]: 512 s⁻¹
